Measured values as given in PubChem BioAssay (NCI).
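Results reflect a 48-hour exposure of cells in 96-well plates to compound at five concentrations. GI50: concentration for 50% inhibition of growth. Definition used: TGI = concentration required for complete inhibition of growth.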

How the values were obtained:
Test in all cases: growth of human tumour cells (NCI), 48 h
OVCAR-4 ovarian = tested on: OVCAR-4 ovarian
MDA-MB-231 breast = tested on: MDA-MB-231 breast
PC-3 prostate = tested on: PC-3 prostate
KM12 colon = tested on: KM12 colon
CCRF-CEM leukemia = tested on: CCRF-CEM leukemia
SN12C renal = tested on: SN12C renal
UO-31 renal = tested on: UO-31 renal
RXF 393 renal = tested on: RXF 393 renal

Q: For FC(F)(F)c1cccc(COCCN2CCN(Cc3cccc(C(F)(F)F)c3)CC2)c1, which TGI (OVCAR-4 ovarian) is on record?
A: 32.1 µM

Q: And the TGI (MDA-MB-231 breast)?
A: 44.7 µM

Q: What about the TGI (PC-3 prostate) of the same compound?
A: 21.7 µM

Q: And the TGI (KM12 colon)?
A: 35.8 µM

Q: And the TGI (CCRF-CEM leukemia)?
A: 46.6 µM

Q: And the TGI (SN12C renal)?
A: 33 µM

Q: What about the TGI (UO-31 renal) of the same compound?
A: 24.9 µM

Q: With COc1ccc2nc(-c3ccccc3)cc(Nc3ccc(C(C)=O)cc3)c2c1 as the compound, how does the GI50 (OVCAR-4 ovarian) read?
A: 12.1 µM

Q: And the TGI (OVCAR-4 ovarian)?
A: > 100 µM

Q: What about the GI50 (MDA-MB-231 breast) of the same compound?
A: 0.0369 µM

Q: And the TGI (MDA-MB-231 breast)?
A: 2.13 µM

Q: And the GI50 (PC-3 prostate)?
A: 1.16 µM

Q: What about the TGI (PC-3 prostate) of the same compound?
A: 4.63 µM

Q: And the GI50 (KM12 colon)?
A: 1.88 µM

Q: And the TGI (KM12 colon)?
A: 5.2 µM

Q: And the GI50 (SN12C renal)?
A: 1.87 µM

Q: What about the TGI (SN12C renal) of the same compound?
A: 4.66 µM

Q: And the GI50 (UO-31 renal)?
A: 6.2 µM

Q: And the TGI (UO-31 renal)?
A: > 100 µM

Q: How did the GI50 (OVCAR-4 ovarian) turn out when COC(=O)NC/C=C\c1nc(CC/C=C\C(=O)OC2CC3CC(=O)O[C@H](/C=C/CC(C)C)C[C@H]4CCC(C)C(C[C@H](OC)CC(C2)O3)O4)co1 (stereo partly specified) was run?
A: 23.4 µM

Q: What about the TGI (OVCAR-4 ovarian) of the same compound?
A: > 100 µM

Q: What about the GI50 (MDA-MB-231 breast) of the same compound?
A: 11.3 µM

Q: What about the TGI (MDA-MB-231 breast) of the same compound?
A: > 100 µM

Q: And the GI50 (PC-3 prostate)?
A: 0.218 µM

Q: And the TGI (PC-3 prostate)?
A: > 100 µM

Q: What about the GI50 (KM12 colon) of the same compound?
A: 4.25 µM

Q: And the TGI (KM12 colon)?
A: > 100 µM

Q: And the GI50 (SN12C renal)?
A: < 0.01 µM

Q: And the TGI (SN12C renal)?
A: 28.8 µM

Q: And the GI50 (UO-31 renal)?
A: 25.4 µM

Q: And the TGI (UO-31 renal)?
A: > 100 µM

Q: What does the source list for CCOC(=O)/C(=C\c1ccc(OCc2ccccc2)c(OC)c1)C(=O)c1ccccc1?
A: TGI (OVCAR-4 ovarian): > 100 µM; TGI (KM12 colon): 41.2 µM; TGI (CCRF-CEM leukemia): 58.5 µM; TGI (SN12C renal): 45.6 µM; TGI (UO-31 renal): 32.4 µM

Q: For COc1ccc2c(c1)nc(N)c1c3cc(OC)c(OC)cc3cn21, which GI50 (OVCAR-4 ovarian) is on record?
A: 0.238 µM

Q: And the TGI (OVCAR-4 ovarian)?
A: 17.8 µM

Q: And the GI50 (MDA-MB-231 breast)?
A: 0.345 µM

Q: What about the TGI (MDA-MB-231 breast) of the same compound?
A: 17.4 µM

Q: What about the TGI (PC-3 prostate) of the same compound?
A: 16 µM

Q: What about the GI50 (KM12 colon) of the same compound?
A: 0.014 µM

Q: What about the TGI (KM12 colon) of the same compound?
A: 12.7 µM

Q: And the GI50 (CCRF-CEM leukemia)?
A: 0.0101 µM

Q: What about the TGI (CCRF-CEM leukemia) of the same compound?
A: 11 µM

Q: And the GI50 (SN12C renal)?
A: 0.147 µM

Q: What about the TGI (SN12C renal) of the same compound?
A: 17.5 µM

Q: And the GI50 (UO-31 renal)?
A: 2.51 µM

Q: And the TGI (UO-31 renal)?
A: 20.5 µM

Q: What does the source list for CCCCCCCCCNCCCCCCCCC?
A: GI50 (OVCAR-4 ovarian): 1.75 µM; TGI (OVCAR-4 ovarian): 3.78 µM; GI50 (MDA-MB-231 breast): 1.56 µM; TGI (MDA-MB-231 breast): 3.21 µM; GI50 (PC-3 prostate): 2.03 µM; TGI (PC-3 prostate): 4.7 µM; GI50 (RXF 393 renal): 1.81 µM; TGI (RXF 393 renal): 3.25 µM; GI50 (KM12 colon): 1.83 µM; TGI (KM12 colon): 3.29 µM; GI50 (SN12C renal): 1.59 µM; TGI (SN12C renal): 3.25 µM; GI50 (UO-31 renal): 1.62 µM; TGI (UO-31 renal): 3.8 µM

Q: For C=C1C[C@@H]2C/C=C/C(=O)C/C(C)=C\C=C\C(=O)O[C@H](C=O)C/C(C)=C/[C@H](C1)O2, which GI50 (OVCAR-4 ovarian) is on record?
A: 4.65 µM

Q: And the TGI (OVCAR-4 ovarian)?
A: 70 µM

Q: What about the GI50 (MDA-MB-231 breast) of the same compound?
A: 3.69 µM

Q: And the TGI (MDA-MB-231 breast)?
A: 13.1 µM

Q: What about the GI50 (PC-3 prostate) of the same compound?
A: 0.354 µM

Q: And the TGI (PC-3 prostate)?
A: 21.4 µM

Q: What about the GI50 (KM12 colon) of the same compound?
A: 1.17 µM

Q: And the TGI (KM12 colon)?
A: 12.2 µM

Q: What about the GI50 (CCRF-CEM leukemia) of the same compound?
A: 0.315 µM

Q: What about the TGI (CCRF-CEM leukemia) of the same compound?
A: 0.956 µM

Q: And the GI50 (SN12C renal)?
A: 0.697 µM

Q: And the TGI (SN12C renal)?
A: 20.4 µM

Q: What about the GI50 (UO-31 renal) of the same compound?
A: 3.33 µM

Q: And the TGI (UO-31 renal)?
A: 56.4 µM

Q: How did the GI50 (OVCAR-4 ovarian) turn out when O=C(c1cc(F)c(Cl)cc1Cl)N1N=C(c2ccccc2)CC1(O)c1ccccc1 (stereo unspecified) was run?
A: 17.8 µM

Q: And the TGI (OVCAR-4 ovarian)?
A: 57.8 µM

Q: And the GI50 (MDA-MB-231 breast)?
A: 15.7 µM

Q: And the TGI (MDA-MB-231 breast)?
A: 33.3 µM

Q: What about the GI50 (PC-3 prostate) of the same compound?
A: 12.9 µM

Q: And the TGI (PC-3 prostate)?
A: 40.5 µM

Q: And the GI50 (RXF 393 renal)?
A: 23.6 µM

Q: And the TGI (RXF 393 renal)?
A: 48.1 µM

Q: And the GI50 (KM12 colon)?
A: 20.1 µM

Q: And the TGI (KM12 colon)?
A: 44.8 µM

Q: What about the GI50 (SN12C renal) of the same compound?
A: 18.7 µM

Q: And the TGI (SN12C renal)?
A: 40.5 µM

Q: What about the GI50 (UO-31 renal) of the same compound?
A: 15.7 µM

Q: And the TGI (UO-31 renal)?
A: 30.1 µM
